Experiment: xn = mol fraction of the nth substance listed
Settings: 101.33 kPa, Liquid

CN1CCNCC1 [N-methylpiperazine] + CC(C)O
Settings	mass density, 293.15 K [kg/m3]	mass density, 298.15 K [kg/m3]	mass density, 303.15 K [kg/m3]	viscosity, 293.15 K [mPa·s]	viscosity, 298.15 K [mPa·s]	viscosity, 303.15 K [mPa·s]
x2 = 0	903.78	899.8	894.54	2.1	1.841	1.624
x2 = 0.0998	897.99	893.98	888.87	2.261	1.967	1.733
x2 = 0.1988	891.42	887.39	882.45	2.393	2.072	1.816
x2 = 0.3003	883.75	879.73	874.96	2.502	2.162	1.891
x2 = 0.3998	875.22	871.21	866.62	2.581	2.224	1.938
x2 = 0.5	865.48	861.47	857.07	2.65	2.281	1.984
x2 = 0.5996	854.41	850.38	846.15	2.69	2.312	2.012
x2 = 0.7	841.49	837.39	833.32	2.704	2.329	2.027
x2 = 0.7991	826.48	822.27	818.3	2.678	2.309	2.008
x2 = 0.8503	817.61	813.32	809.39	2.648	2.284	1.986
x2 = 0.9003	808.06	803.69	799.79	2.615	2.25	1.954
x2 = 0.9489	797.8	793.36	789.46	2.541	2.183	1.893

CN1CCNCC1 [N-methylpiperazine] + CCCCO
Settings	mass density, 293.15 K [kg/m3]	mass density, 298.15 K [kg/m3]	mass density, 303.15 K [kg/m3]	viscosity, 293.15 K [mPa·s]	viscosity, 298.15 K [mPa·s]	viscosity, 303.15 K [mPa·s]
x2 = 0	903.79	899.8	894.54	2.1	1.841	1.624
x2 = 0.0982	898.89	894.98	889.88	2.247	1.966	1.73
x2 = 0.199	893.13	889.24	884.23	2.431	2.115	1.859
x2 = 0.2966	886.88	883.01	878.11	2.631	2.283	2.002
x2 = 0.3973	879.73	875.91	871.16	2.841	2.461	2.153
x2 = 0.5001	871.61	867.85	863.29	3.018	2.615	2.284
x2 = 0.6004	862.72	859.01	854.62	3.181	2.751	2.392
x2 = 0.6995	852.72	849.01	844.76	3.261	2.832	2.471
x2 = 0.7537	846.6	842.86	838.67	3.272	2.846	2.495
x2 = 0.7936	841.74	837.97	833.81	3.258	2.841	2.486
x2 = 0.8002	840.9	837.13	832.97	3.247	2.833	2.489
x2 = 0.8419	835.38	831.58	827.45	3.218	2.812	2.473
x2 = 0.8997	827	823.16	819.05	3.145	2.756	2.427

CO [methanol] + CN1CCNCC1
x1 = 1
Settings	mass density [kg/m3]	viscosity [mPa·s]
293.15 K	791.09	0.593
298.15 K	786.48	0.551
303.15 K	781.22	0.509

CCCCO [butan-1-ol] + CN1CCNCC1
x1 = 1
Settings	mass density [kg/m3]	viscosity [mPa·s]
293.15 K	809.97	2.938
298.15 K	806.15	2.572
303.15 K	802.14	2.271

CC(C)CO [2-methyl-1-propanol] + CN1CCNCC1
x1 = 1
Settings	mass density [kg/m3]	viscosity [mPa·s]
293.15 K	801.58	3.994
298.15 K	798.09	3.334
303.15 K	794.09	2.794

CCCO [propan-1-ol] + CN1CCNCC1
x1 = 1
Settings	mass density [kg/m3]	viscosity [mPa·s]
293.15 K	803.79	2.194
298.15 K	799.74	1.945
303.15 K	795.68	1.73

CC(C)O [propan-2-ol] + CN1CCNCC1
x1 = 1
Settings	mass density [kg/m3]	viscosity [mPa·s]
293.15 K	785.84	2.405
298.15 K	781.3	2.062
303.15 K	777.41	1.782

CN1CCNCC1 [N-methylpiperazine] + CC(C)CO
Settings	mass density, 293.15 K [kg/m3]	mass density, 298.15 K [kg/m3]	mass density, 303.15 K [kg/m3]	viscosity, 293.15 K [mPa·s]	viscosity, 298.15 K [mPa·s]	viscosity, 303.15 K [mPa·s]
x2 = 0	903.78	899.8	894.55	2.1	1.841	1.624
x2 = 0.0515	901.11	897.16	891.98	2.237	1.941	1.699
x2 = 0.0983	898.38	894.46	889.35	2.361	2.046	1.781
x2 = 0.1506	895.07	891.19	886.16	2.542	2.198	1.914
x2 = 0.2011	891.66	887.82	882.88	2.728	2.354	2.039
x2 = 0.2971	884.72	880.97	876.18	3.084	2.647	2.288
x2 = 0.402	876.51	872.85	868.24	3.469	2.957	2.541
x2 = 0.4982	868.29	864.71	860.24	3.838	3.249	2.785
x2 = 0.6001	858.58	855.07	850.74	4.142	3.504	2.999
x2 = 0.6995	847.72	844.25	840.04	4.382	3.693	3.151
x2 = 0.7978	835.15	831.71	827.6	4.487	3.789	3.211
x2 = 0.8995	819.74	816.28	812.25	4.423	3.708	3.116

CN1CCNCC1 [N-methylpiperazine] + CCCO
Settings	mass density, 293.15 K [kg/m3]	mass density, 298.15 K [kg/m3]	mass density, 303.15 K [kg/m3]	viscosity, 293.15 K [mPa·s]	viscosity, 298.15 K [mPa·s]	viscosity, 303.15 K [mPa·s]
x2 = 0	903.79	899.8	894.54	2.1	1.841	1.624
x2 = 0.1017	899.72	895.76	890.62	2.24	1.962	1.716
x2 = 0.1987	895.17	891.23	886.21	2.369	2.058	1.809
x2 = 0.3	889.62	885.71	880.86	2.536	2.2	1.932
x2 = 0.4007	883.15	879.31	874.64	2.689	2.326	2.035
x2 = 0.4998	875.68	871.91	867.4	2.817	2.438	2.129
x2 = 0.5504	871.35	867.6	863.18	2.863	2.478	2.167
x2 = 0.6011	866.59	862.85	858.5	2.895	2.506	2.192
x2 = 0.6542	861.09	857.34	853.04	2.885	2.504	2.193
x2 = 0.7001	855.83	852.05	847.8	2.874	2.497	2.186
x2 = 0.7495	849.57	845.75	841.53	2.833	2.473	2.175
x2 = 0.7991	842.55	838.67	834.47	2.752	2.413	2.124
x2 = 0.902	825.1	821.08	816.93	2.54	2.23	1.98

CCO [ethanol] + CN1CCNCC1
x1 = 1
Settings	mass density [kg/m3]	viscosity [mPa·s]
293.15 K	789.32	1.17
298.15 K	785.06	1.078
303.15 K	780.68	0.982

From the NIST ThermoML archive (doi:10.1016/j.fluid.2005.05.012)
